Results published in patent publication US10568819B2, “Skin enhancing compositions and methods” (Sytheon Limited, priority 2016, dated 2020).

Assays:
Keratinocytes = experiment: UVA- and UVB-induced formation of immediate CPDs (iCPDs) in keratinocytes; format: cell-based; conditions: 25 μg/ml
Method: (§1) Given the significance of CPDs in skin aging and damage, a study was undertaken to determine whether compounds of the present invention have the ability to directly protect the genome of skin cells from the mutagenic effect of UV light as evidenced by CPDs inhibition. The study was conducted in accordance with the method described by Mitchell et. al. [Mitchell, D L, The relative cytotoxicity of (6-4) photoproducts and cyclobutane dimers in mammalian cells. Photochem Photobiol, 48(1):51-57, 1988)] pursuant to which UVA- and UVB-induced formation of immediate CPDs (iCPDs) were determined.

Fibroblasts = experiment: UVA- and UVB-induced formation of immediate CPDs (iCPDs) in fibroblasts; format: cell-based; conditions: UVA, 25 μg/ml
Method: as §1

human dermal fibroblasts [1] = experiment: UVA-induced mitochondrial damage measured by ATP production (Mitochondrial ToxGlo Assay); format: cell-based; conditions: 24 h pre-incubation
Method: (§2) The study was conducted in accordance with the protocols of Berridge et al, (M V Berridge & A S Tan, Characterization of the cellular reduction of 3-(4,5-dimethylthiazol-2-yl)-2,5-diphenyltetrazolium bromide (MTT): subcellular localization, substrate dependence, and involvement of mitochondrial electron transport in MTT reduction, Arch. Biochem. Biophys. 303:474-482, 1993) and Voigt (W Voigt, Sulforhodamine B assay and chemosensitivity, Methods Mol Med, 110:39-48, 2005). Cellular metabolism is determined using the MTT assay to measure the activity of mitochondrial dehydrogenases, such as succinate dehydrogenase, which are implicated in the respiratory electron transport chain in mitochondria [M V Berridge & Tan Biochem Biophys, 303:474-482, 1993]. Additionally, the samples were subject to the Mitochondrial ToxGlo Assay (Promega Technical Manual, G8000 and G8001), which is a cell-based assay method that has been developed to quantify potential mitochondrial dysfunction as a result of xenobiotic exposure, using a sequential-addition, multiplexed chemistry.
(§3) Table 8 presents the result on the effect of UVA radiation on cell metabolism 3 hours after irradiation. As indicated, Compound 1 improves cell metabolism, even at a very low use concentration. Table 9 presents the effect of 24 hour pre-incubation on UVA-induced mitochondrial damage measured by ATP production in human dermal fibroblasts. […] Finally. Table 10 presents the effect of 24 hour pre-incubation on UVA-induced plasma membrane disruption in human dermal fibroblasts. As indicated, Compound 1 almost completely reversed plasma membrane disruption, again at a very low use concentration.

human dermal fibroblasts [2] = experiment: UVA-induced plasma membrane disruption (Mitochondrial ToxGlo Assay); format: cell-based; conditions: 24 hour Pre-incubation
Method: as §2, §3

COL4A1 = experiment: DNA microarray gene expression, COL4A1; format: cell-based
Source text: (§4) In light of the efficacy of the aryl alkanones ire addressing many of the molecular/biomolecular processes damaged by UV exposure, a study was undertaken to assess whether these compounds would also be effective in addressing symptoms associated with non-UV induced skin aging including chronological aging as well as disease conditions that likewise adversely affect skin processes. The studies conducted involves DNA microarray, PCR array, cell culture, enzyme inhibitory activity.

COL6A3 = experiment: DNA microarray gene expression, COL6A3; format: cell-based
Source text: as §4

COL11A1 = experiment: DNA microarray gene expression, COL11A1; format: cell-based
Source text: as §4

COL11A2 = experiment: DNA microarray gene expression, COL11A2; format: cell-based
Source text: as §4

COL14A1 = experiment: DNA microarray gene expression, COL14A1; format: cell-based
Source text: as §4

FBLN1 = experiment: DNA microarray gene expression, FBLN1; format: cell-based
Source text: as §4

VCAN = experiment: DNA microarray gene expression, VCAN; format: cell-based
Source text: as §4

ITGA4 = experiment: DNA microarray gene expression, ITGA4; format: cell-based
Source text: as §4

TIMP3 = experiment: DNA microarray gene expression, TIMP3; format: cell-based
Source text: as §4

POT1 = experiment: DNA microarray gene expression, POT1; format: cell-based
Source text: as §4

COL6A1 = experiment: PCR array gene expression, COL6A1; format: cell-based
Source text: as §4

LAMC1 = experiment: PCR array gene expression, LAMC1; format: cell-based
Source text: as §4

ITGA1 = experiment: PCR array gene expression, ITGA1; format: cell-based
Source text: as §4

ITGB5 = experiment: PCR array gene expression, ITGB5; format: cell-based
Source text: as §4

Collagen type 3 = experiment: Collagen 3 boosting in human dermal fibroblasts; format: cell-based; conditions: HDF, incubation time of 6 days
Method: In this study, an investigation was performed in relation to the ability, if any, of the aryl alkanones to boost the production of Collagens 1, 3 and 4 proteins. The study was conducted using human fibroblasts in accordance with the method of J Dobak et at (J Dobak, J Grzybowski, F T Liu, B Landon, M Dobke, 1, 25-Dihydroxyvitamin D3 increases collagen production in dermal fibroblasts, J Dermatol Sci 1994; 8:18-24, 1994). In this study, the cells used were human dermal fibroblasts (HDF), passage 12 (Cell Applications, San Diego, Calif.) which underwent an incubation time of 6 days.

Collagen type 4 = experiment: Collagen 4 boosting in human dermal fibroblasts; format: cell-based; conditions: HDF, incubation time of 6 days
Method: In this study, an investigation was performed in relation to the ability, if any, of the aryl alkanones to boost the production of Collagens 1, 3 and 4 proteins. […] In this study, the cells used were human dermal fibroblasts (HDF), passage 12 (Cell Applications, San Diego, Calif.) which underwent an incubation time of 6 days.

MMP-1 enzyme = biological target: T1, MMP-1 enzyme (Homo sapiens, UniProt P03956); experiment: MMP-1 inhibition; format: biochemical; conditions: read-out: Inhibitory concentration (IC50), MMP-1
T1 construct: purchased Anaspec
Method: Another study was conducted in which the elastin and MMP activity of Compound 1 was evaluated. The methodology for the study of MMP-1 and MMP-3 activity was as follows: • A 0.1 g sample of Compound 1 was dissolved in 1 ml DMSO, then it was diluted 100× with Tris buffer (50 mM Iris pH 7.5, 150 mM NaCl, 2 mM CaCl2, 5μ ZnO4, 0.01% Brij-35) to make a stock solution. For the analysis, different concentrations of Compound 1 were used to determine the IC50. The sample and 100 ng/ml MMP-1 enzyme (Anaspec) or MMP-3 enzyme (Anaspec) were incubated at 37° C. for 10 minutes before the addition of 2.25 μM PEPDAB008 substrate (Biozyme). The fluorescence signal was monitored at excitation of 485 nm and emission of 530 nm.

T1 sequence (P03956 100-469, species assumed): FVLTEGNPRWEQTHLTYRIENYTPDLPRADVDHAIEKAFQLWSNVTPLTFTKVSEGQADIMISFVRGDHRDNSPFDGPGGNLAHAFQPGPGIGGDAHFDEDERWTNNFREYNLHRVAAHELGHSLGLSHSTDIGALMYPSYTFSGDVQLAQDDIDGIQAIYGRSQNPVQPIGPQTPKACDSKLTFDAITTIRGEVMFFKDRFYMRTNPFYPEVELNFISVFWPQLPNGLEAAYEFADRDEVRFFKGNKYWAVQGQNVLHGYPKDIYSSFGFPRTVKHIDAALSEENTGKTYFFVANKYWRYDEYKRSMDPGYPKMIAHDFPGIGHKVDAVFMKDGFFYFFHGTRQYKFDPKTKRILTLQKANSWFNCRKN

## COc1cc(CC(C(C)=O)C(C)=O)ccc1O [Compound 1, Acetyl Zingerone]
Keratinocytes; UVA
  UVA/% Reduction in iCPDs vs. Control: 73%
Keratinocytes; UVB
  UVB/% Reduction iCPDs vs. Control: 44%
Fibroblasts
  UVA/% Reduction in iCPDs vs. Control: 45%
Human dermal fibroblasts [1]; 6.25 ug/ml
  ATP-related chemoluminescence (% Control): 94 % Control
  Comments: % damage: Only 6%
Human dermal fibroblasts [1]; 12.5 ug/ml
  ATP-related chemoluminescence (% Control): 87 % Control
  Comments: % damage: Only 13%
Human dermal fibroblasts [2]; 6.25 ug/ml
  Plasma membrane disruption-related fluorescence (% Control): 125 % Control
Human dermal fibroblasts [2]; 12.5 ug/ml
  Plasma membrane disruption-related fluorescence (% Control): 130 % Control
Human dermal fibroblasts [2]; 25 ug/ml
  Plasma membrane disruption-related fluorescence (% Control): 117 % Control
COL4A1
  Microarray, COL4A1 gene expression: +1.6
COL6A3
  Microarray, COL6A3 gene expression: +1.8
COL11A1
  Microarray, COL11A1 gene expression: +1.6
COL11A2
  Microarray, COL11A2 gene expression: +5.2
COL14A1
  Microarray, COL14A1 gene expression: +4.3
FBLN1
  Microarray, FBLN1 gene expression: +1.9
VCAN
  Microarray, VCAN gene expression: +1.7
ITGA4
  Microarray, ITGA4 gene expression: +1.6
TIMP3
  Microarray, TIMP3 gene expression: +5.1
POT1
  Microarray, POT1 gene expression: +2.9
COL6A1
  PCR array, COL6A1 gene expression: +1.5
LAMC1
  PCR array, LAMC1 gene expression: +2.0
ITGA1
  PCR array, ITGA1 gene expression: +2.2
ITGB5
  PCR array, ITGB5 gene expression: +1.7
Collagen type 3; 50 μg/ml
  % Collagen 3 boosting: 111%
Collagen type 3; 100 μg/ml
  % Collagen 3 boosting: 146%
Collagen type 4; 50 μg/ml
  % Collagen 4 Boosting: 145%
Collagen type 4; 100 μg/ml
  % Collagen 4 Boosting: 245%
MMP-1 enzyme
  IC50: 4.19 mM
